± gives the expanded uncertainty stated by the source.
Assay: xn = mol fraction of the nth substance listed
Conditions: 101.3 kPa, Liquid, Vibrating tube method

A mass density (288.15 K, x2 = 0.0503) of 1231.77 ± 0.56 kg/m3, a mass density (288.15 K, x2 = 0.0999) of 1204.93 ± 0.53 kg/m3 and a mass density (288.15 K, x2 = 0.1498) of 1179.01 ± 0.5 kg/m3 were found for `ClCCCl` [1,2-dichloroethane] + CCC(C)O in this work. For the same compound, the mass density (288.15 K, x2 = 0.1999) was 1153.69 ± 0.47 kg/m3, the mass density (288.15 K, x2 = 0.2505) was 1128.43 ± 0.44 kg/m3 and the mass density (288.15 K, x2 = 0.2963) was 1106.34 ± 0.42 kg/m3. For the same compound, the mass density (288.15 K, x2 = 0.3503) was 1080.63 ± 0.39 kg/m3, the mass density (288.15 K, x2 = 0.3995) was 1057.91 ± 0.37 kg/m3 and the mass density (288.15 K, x2 = 0.4501) was 1034.98 ± 0.34 kg/m3. It also gave a mass density (288.15 K, x2 = 0.4993) of 1013.03 ± 0.32 kg/m3, a mass density (288.15 K, x2 = 0.5486) of 991.648 ± 0.31 kg/m3 and a mass density (288.15 K, x2 = 0.6) of 969.557 ± 0.31 kg/m3. The mass density (288.15 K, x2 = 0.6493) was 948.744 ± 0.31 kg/m3, the mass density (288.15 K, x2 = 0.6999) was 928.023 ± 0.31 kg/m3 and the mass density (288.15 K, x2 = 0.7499) was 907.77 ± 0.31 kg/m3. The mass density (288.15 K, x2 = 0.7998) was 887.96 ± 0.31 kg/m3, the mass density (288.15 K, x2 = 0.8498) was 868.538 ± 0.31 kg/m3 and the mass density (288.15 K, x2 = 0.8997) was 849.217 ± 0.31 kg/m3. The mass density (288.15 K, x2 = 0.95) was 829.951 ± 0.31 kg/m3, the mass density (293.15 K, x2 = 0.0503) was 1224.62 ± 0.55 kg/m3 and the mass density (293.15 K, x2 = 0.0999) was 1197.88 ± 0.52 kg/m3. It also gave a mass density (293.15 K, x2 = 0.1498) of 1172.06 ± 0.49 kg/m3, a mass density (293.15 K, x2 = 0.1999) of 1146.88 ± 0.46 kg/m3 and a mass density (293.15 K, x2 = 0.2505) of 1121.76 ± 0.43 kg/m3. The mass density (293.15 K, x2 = 0.2963) was 1099.8 ± 0.41 kg/m3, the mass density (293.15 K, x2 = 0.3503) was 1074.29 ± 0.38 kg/m3 and the mass density (293.15 K, x2 = 0.3995) was 1051.71 ± 0.36 kg/m3. It also gave a mass density (293.15 K, x2 = 0.4501) of 1028.92 ± 0.34 kg/m3, a mass density (293.15 K, x2 = 0.4993) of 1007.13 ± 0.32 kg/m3 and a mass density (293.15 K, x2 = 0.5486) of 985.947 ± 0.31 kg/m3. For the same compound, the mass density (293.15 K, x2 = 0.6) was 963.995 ± 0.31 kg/m3, the mass density (293.15 K, x2 = 0.6493) was 943.35 ± 0.31 kg/m3 and the mass density (293.15 K, x2 = 0.6999) was 922.806 ± 0.31 kg/m3. It also gave a mass density (293.15 K, x2 = 0.7499) of 902.736 ± 0.31 kg/m3, a mass density (293.15 K, x2 = 0.7998) of 883.21 ± 0.31 kg/m3 and a mass density (293.15 K, x2 = 0.8498) of 863.861 ± 0.31 kg/m3. The mass density (293.15 K, x2 = 0.8997) was 844.779 ± 0.31 kg/m3, the mass density (293.15 K, x2 = 0.95) was 825.697 ± 0.31 kg/m3 and the mass density (298.15 K, x2 = 0.0503) was 1217.45 ± 0.54 kg/m3. The mass density (298.15 K, x2 = 0.0999) was 1190.8 ± 0.51 kg/m3, the mass density (298.15 K, x2 = 0.1498) was 1165.09 ± 0.48 kg/m3 and the mass density (298.15 K, x2 = 0.1999) was 1140.03 ± 0.45 kg/m3. For the same compound, the mass density (298.15 K, x2 = 0.2505) was 1115.05 ± 0.43 kg/m3, the mass density (298.15 K, x2 = 0.2963) was 1093.22 ± 0.4 kg/m3 and the mass density (298.15 K, x2 = 0.3503) was 1067.22 ± 0.38 kg/m3. It also gave a mass density (298.15 K, x2 = 0.3995) of 1045.45 ± 0.35 kg/m3, a mass density (298.15 K, x2 = 0.4501) of 1022.81 ± 0.33 kg/m3 and a mass density (298.15 K, x2 = 0.4993) of 1001.19 ± 0.31 kg/m3. It also gave a mass density (298.15 K, x2 = 0.5486) of 980.168 ± 0.31 kg/m3, a mass density (298.15 K, x2 = 0.6) of 958.381 ± 0.31 kg/m3 and a mass density (298.15 K, x2 = 0.6493) of 937.897 ± 0.31 kg/m3. For the same compound, the mass density (298.15 K, x2 = 0.6999) was 917.532 ± 0.31 kg/m3, the mass density (298.15 K, x2 = 0.7499) was 897.63 ± 0.31 kg/m3 and the mass density (298.15 K, x2 = 0.7998) was 878.173 ± 0.31 kg/m3. The mass density (298.15 K, x2 = 0.8498) was 859.123 ± 0.31 kg/m3, the mass density (298.15 K, x2 = 0.8997) was 840.238 ± 0.31 kg/m3 and the mass density (298.15 K, x2 = 0.95) was 821.349 ± 0.31 kg/m3. The mass density (303.15 K, x2 = 0.0503) was 1210.25 ± 0.53 kg/m3, the mass density (303.15 K, x2 = 0.0999) was 1183.69 ± 0.5 kg/m3 and the mass density (303.15 K, x2 = 0.1498) was 1158.09 ± 0.47 kg/m3. For the same compound, the mass density (303.15 K, x2 = 0.1999) was 1133.14 ± 0.45 kg/m3, the mass density (303.15 K, x2 = 0.2505) was 1108.3 ± 0.42 kg/m3 and the mass density (303.15 K, x2 = 0.2963) was 1086.6 ± 0.4 kg/m3. It also gave a mass density (303.15 K, x2 = 0.3503) of 1061.5 ± 0.37 kg/m3, a mass density (303.15 K, x2 = 0.3995) of 1039.11 ± 0.35 kg/m3 and a mass density (303.15 K, x2 = 0.4501) of 1016.66 ± 0.33 kg/m3. The mass density (303.15 K, x2 = 0.4993) was 995.186 ± 0.31 kg/m3, the mass density (303.15 K, x2 = 0.5486) was 974.12 ± 0.31 kg/m3 and the mass density (303.15 K, x2 = 0.6) was 952.707 ± 0.31 kg/m3. For the same compound, the mass density (303.15 K, x2 = 0.6493) was 932.387 ± 0.31 kg/m3, the mass density (303.15 K, x2 = 0.6999) was 912.188 ± 0.31 kg/m3 and the mass density (303.15 K, x2 = 0.7499) was 892.466 ± 0.31 kg/m3. The mass density (303.15 K, x2 = 0.7998) was 873.288 ± 0.31 kg/m3, the mass density (303.15 K, x2 = 0.8498) was 854.308 ± 0.31 kg/m3 and the mass density (303.15 K, x2 = 0.8997) was 835.615 ± 0.31 kg/m3. It also gave a mass density (303.15 K, x2 = 0.95) of 816.932 ± 0.31 kg/m3, a mass density (308.15 K, x2 = 0.0503) of 1203.02 ± 0.52 kg/m3 and a mass density (308.15 K, x2 = 0.0999) of 1176.55 ± 0.49 kg/m3. For the same compound, the mass density (308.15 K, x2 = 0.1498) was 1151.05 ± 0.47 kg/m3, the mass density (308.15 K, x2 = 0.1999) was 1126.22 ± 0.44 kg/m3 and the mass density (308.15 K, x2 = 0.2505) was 1101.51 ± 0.41 kg/m3. The mass density (308.15 K, x2 = 0.2963) was 1079.94 ± 0.39 kg/m3, the mass density (308.15 K, x2 = 0.3503) was 1055.06 ± 0.36 kg/m3 and the mass density (308.15 K, x2 = 0.3995) was 1032.79 ± 0.34 kg/m3. The mass density (308.15 K, x2 = 0.4501) was 1010.45 ± 0.32 kg/m3, the mass density (308.15 K, x2 = 0.4993) was 989.131 ± 0.31 kg/m3 and the mass density (308.15 K, x2 = 0.5486) was 968.223 ± 0.31 kg/m3. For the same compound, the mass density (308.15 K, x2 = 0.6) was 946.966 ± 0.31 kg/m3, the mass density (308.15 K, x2 = 0.6493) was 926.811 ± 0.31 kg/m3 and the mass density (308.15 K, x2 = 0.6999) was 906.776 ± 0.31 kg/m3. The mass density (308.15 K, x2 = 0.7499) was 887.227 ± 0.31 kg/m3, the mass density (308.15 K, x2 = 0.7998) was 868.11 ± 0.31 kg/m3 and the mass density (308.15 K, x2 = 0.8498) was 849.413 ± 0.31 kg/m3. For the same compound, the mass density (308.15 K, x2 = 0.8997) was 830.908 ± 0.31 kg/m3, the mass density (308.15 K, x2 = 0.95) was 812.451 ± 0.31 kg/m3 and the mass density (313.15 K, x2 = 0.0503) was 1195.77 ± 0.52 kg/m3. The mass density (313.15 K, x2 = 0.0999) was 1169.4 ± 0.49 kg/m3, the mass density (313.15 K, x2 = 0.1498) was 1143.99 ± 0.46 kg/m3 and the mass density (313.15 K, x2 = 0.1999) was 1119.27 ± 0.43 kg/m3. The mass density (313.15 K, x2 = 0.2505) was 1094.68 ± 0.41 kg/m3, the mass density (313.15 K, x2 = 0.2963) was 1073.22 ± 0.38 kg/m3 and the mass density (313.15 K, x2 = 0.3503) was 1048.25 ± 0.36 kg/m3. It also gave a mass density (313.15 K, x2 = 0.3995) of 1026.29 ± 0.34 kg/m3, a mass density (313.15 K, x2 = 0.4501) of 1004.19 ± 0.31 kg/m3 and a mass density (313.15 K, x2 = 0.4993) of 983.023 ± 0.31 kg/m3. The mass density (313.15 K, x2 = 0.5486) was 962.22 ± 0.31 kg/m3, the mass density (313.15 K, x2 = 0.6) was 941.176 ± 0.31 kg/m3 and the mass density (313.15 K, x2 = 0.6493) was 921.174 ± 0.31 kg/m3. It also gave a mass density (313.15 K, x2 = 0.6999) of 901.308 ± 0.31 kg/m3, a mass density (313.15 K, x2 = 0.7499) of 881.93 ± 0.31 kg/m3 and a mass density (313.15 K, x2 = 0.7998) of 863.093 ± 0.31 kg/m3. It also gave a mass density (313.15 K, x2 = 0.8498) of 844.444 ± 0.31 kg/m3, a mass density (313.15 K, x2 = 0.8997) of 826.085 ± 0.31 kg/m3 and a mass density (313.15 K, x2 = 0.95) of 807.826 ± 0.31 kg/m3.
